Laboratory results published in patent US7432256B2, “Substitued imidazo [1,5-A][1,2,4]triazolo[1,5-D][1,4]benzodiazepine derivatives” (Hoffman-La Roche Inc., priority 2004, dated 2008).
Structures can show the parent of a compound that is named as a salt. Where two headings read alike, the source gives them in different places.

Assays:
[1] = target: T1, GABA A receptor a5b3g2 (hα5) (Homo sapiens, UniProt P18507+P31644); assay: [3H]flumazenil competition binding, GABA A a5b3g2 receptors in HEK293 cells
T1 construct: expressed in transfected cells; host or cells: HEK293 (transient transfection), membranes
Method: (§1) Membrane Preparation and Binding Assay
(§2) The affinity of compounds at GABA A receptor subtypes was measured by competition for [3H]flumazenil (85 Ci/mmol; Roche) binding to HEK293 cells expressing rat (stably transfected) or human (transiently transfected) receptors of composition a1b3g2, a2b3g2, a3b3g2 and a5b3g2.
(§3) Cell pellets were suspended in Krebs-tris buffer (4.8 mM KCl, 1.2 mM CaCl2, 1.2 mM MgCl2, 120 mM NaCl, 15 mM Tris; pH 7.5; binding assay buffer), homogenized by polytron for ca. 20 sec on ice and centrifuged for 60 min at 4° C. (50000 g; Sorvall, rotor: SM24=20000 rpm). The cell pellets were resuspended in Krebs-tris buffer and homogenized by polytron for ca. 15 sec on ice. Protein was measured (Bradford method, Bio-Rad) and aliquots of 1 mL were prepared and stored at −80° C.
(§4) Assays were incubated to equilibrium for 1 hour at 4° C. and harvested onto GF/C uni-filters (Packard) by filtration using a Packard harvester and washing with ice-cold wash buffer (50 mM Tris; pH 7.5). After drying, filter-retained radioactivity was detected by liquid scintillation counting. Ki values were calculated using Excel-Fit (Microsoft) and are the means of two determinations.
(§5) The major important difference is change from SF9 to HEK293 cells (which are human transiently transfected).

[2] = target: T2, GABA A receptor a1b3g2 (hα1) (Homo sapiens, UniProt P14867+P18507); assay: [3H]flumazenil competition binding, GABA A a1b3g2 receptors in HEK293 cells
T2 construct: expressed in transfected cells; host or cells: HEK293 (transient transfection), membranes
Method: as §1, §2, §3, §4, §5

[3] = target: T3, GABA A receptor a2b3g2 (hα2) (Homo sapiens, UniProt P18507+P47869); assay: [3H]flumazenil competition binding, GABA A a2b3g2 receptors in HEK293 cells
T3 construct: expressed in transfected cells; host or cells: HEK293 (transient transfection), membranes
Method: as §1, §2, §3
(§6) Radioligand binding assays were carried out in a volume of […] (96-well plates) which contained […] of cell memebranes, [3H]flumazenil at a concentration of 1 nM for a1, a2, a3 subunits and 0.5 nM for a5 subunits and the test compound in the range of 10-10-3×10^-6 M. Nonspecific binding was defined by 10^-5 M diazepam and typically represented less than 5% of the total binding. Assays were incubated to equilibrium for 1 hour at 4° C. and harvested onto GF/C uni-filters (Packard) by filtration using a Packard harvester and washing with ice-cold wash buffer (50 mM Tris; pH 7.5). After drying, filter-retained radioactivity was detected by liquid scintillation counting. Ki values were calculated using Excel-Fit (Microsoft) and are the means of two determinations.
as §5

[4] = target: T4, GABA A receptor a3b3g2 (hα3) (Homo sapiens, UniProt P18507+P34903); assay: [3H]flumazenil competition binding, GABA A a3b3g2 receptors in HEK293 cells
T4 construct: expressed in transfected cells; host or cells: HEK293 (transient transfection), membranes
Method: as §1, §2, §3, §6, §5

[5] = [3H]flumazenil 0.5 nM, HEK293 membranes, human transiently transfected, mean of two determinations, read-out: Ki[nM] hα5
[6] = [3H]flumazenil 1 nM, HEK293 membranes, human transiently transfected, mean of two determinations, read-out: Ki[nM] hα2
[7] = [3H]flumazenil 1 nM, HEK293 membranes, human transiently transfected, mean of two determinations, read-out: Ki[nM] hα3
[8] = [3H]flumazenil 1 nM, HEK293 membranes, human transiently transfected, mean of two determinations, read-out: Ki[nM] hα1

Row | Compound | Ki [1, 5] [nM] | Ki [2] [nM] | Ki [1] [nM] | Ki [3, 6] [nM] | Ki [4, 7] [nM] | Ki [3] [nM] | Ki [4] [nM] | Ki [2, 8] [nM]
1 | Clc1ccc2c(c1)-c1ncnn1Cc1c(C#Cc3ccccc3)ncn1-2 [Example 30, 3-Chloro-10-phenylethynyl-9H-imidazo[1,5-a][1,2,4]triazolo[1,5-d][1,4]benzodiazepine] | 1.2 | 13.3 |  |  |  |  |  | 
2 | CC(C)(O)C#Cc1ncn2c1Cn1ncnc1-c1cc(Cl)ccc1-2 [Example 28, 3-Chloro-10-(3-hydroxy-3-methyl-but-1-ynyl)-9H-imidazo[1,5-a][1,2,4]triazolo[1,5-d][1,4]benzodiazepine] | 3.6 | 91 |  |  |  |  |  | 
3 | Cc1ncn2c1Cn1ncnc1-c1cc(Cl)ccc1-2 [Example 3, 3-Chloro-10-methyl-9H-imidazo[1,5-a][1,2,4]triazolo[1,5-d][1,4]benzodiazepine] |  | 18.5 | 3 | 219 | 265 |  |  | 
4 | Cc1ncn2c1Cn1ncnc1-c1cc(F)ccc1-2 [Example 2, 3-Fluoro-10-methyl-9H-imidazo[1,5-a][1,2,4]triazolo[1,5-d][1,4]benzodiazepine] | 3 | 18.2 |  |  |  | 9.1 | 10.8 | 
5 | C=Cc1ncn2c1Cn1ncnc1-c1cc(Cl)ccc1-2 [Example 20, 3-Chloro-10-vinyl-9H-imidazo[1,5-a][1,2,4]triazolo[1,5-d][1,4]benzodiazepine] | 2.2 | 35.8 |  |  |  | 33.6 | 20.8 | 
6 | Clc1ccc2c(c1)-c1ncnn1Cc1c(CC3CC3)ncn1-2 [Example 14, 3-Chloro-10-cyclopropylmethyl-9H-imidazo[1,5-a][1,2,4]triazolo[1,5-d][1,4]benzodiazepine] | 1.7 | 4.9 |  |  |  | 10.2 | 6.1 | 
7 | C=Cc1ncn2c1Cn1ncnc1-c1cc(F)ccc1-2 [Example 19, 3-Fluoro-10-vinyl-9H-imidazo[1,5-a][1,2,4]triazolo[1,5-d][1,4]benzodiazepine] | 11 | 7.8 |  |  |  | 5.9 | 2.3 | 
8 | Fc1ccc2c(c1)-c1ncnn1Cc1c(C#Cc3cccc(C(F)(F)F)c3)ncn1-2 [Example 33, 3-Fluoro-10-(3-trifluoromethyl-phenylethynyl)-9H-imidazo[1,5-a][1,2,4]triazolo[1,5-d][1,4]benzodiazepine] | 1.2 | 3.4 |  |  |  |  |  | 
9 | CCc1ncn2c1Cn1ncnc1-c1cc(Cl)ccc1-2 [Example 10, 3-Chloro-10-ethyl-9H-imidazo[1,5-a][1,2,4]triazolo[1,5-d][1,4]benzodiazepine] | 2.1 | 15.4 |  |  |  | 9.6 | 7 | 
10 | Clc1ccc2c(c1)-c1ncnn1Cc1c(/C=C/C3CC3)ncn1-2 [Example 23, 3-Chloro-10-((E)-2-cyclopropyl-vinyl)-9H-imidazo[1,5-a][1,2,4]triazolo[1,5-d][1,4]benzodiazepine] | 3.7 | 26.9 |  |  |  | 41 | 32.5 | 
11 | C#Cc1ncn2c1Cn1ncnc1-c1cc(Cl)ccc1-2 [Example 26, 3-Chloro-10-ethynyl-9H-imidazo[1,5-a][1,2,4]triazolo[1,5-d][1,4]benzodiazepine] | 0.5 | 4.6 |  |  |  | 6.4 | 3.5 | 
12 | CC(C)c1cccc(C#Cc2ncn3c2Cn2ncnc2-c2cc(F)ccc2-3)c1 [Example 36, 3-Fluoro-10-(3-isopropyl-phenylethynyl)-9H-imidazo[1,5-a][1,2,4]triazolo[1,5-d][1,4]benzodiazepine] | 1.5 | 4 |  |  |  |  |  | 
13 | C#Cc1ncn2c1Cn1ncnc1-c1cc(Br)ccc1-2 [Example 27, 3-Bromo-10-ethynyl-9H-imidazo[1,5-a][1,2,4]triazolo[1,5-d][1,4]benzodiazepine] | 0.9 | 20.3 |  |  |  | 19 | 11.9 | 
14 | C=Cc1ncn2c1Cn1ncnc1-c1ccccc1-2 [Example 18, 10-Vinyl-9H-imidazo[1,5-a][1,2,4]triazolo[1,5-d][1,4]benzodiazepine] | 0.8 | 12.8 |  |  |  | 5.7 | 3.7 | 
15 | 3-Fluoro-10-(3-methoxy-phenylethynyl)-9H-imidazo[1,5-a][1,2,4]triazolo[1,5-d][1,4]benzodiazepine [Example 34] | 1.1 |  |  |  |  |  |  | 14.1
16 | CCCc1ncn2c1Cn1ncnc1-c1cc(Cl)ccc1-2 [Example 12, 3-Chloro-10-propyl-9H-imidazo[1,5-a][1,2,4]triazolo[1,5-d][1,4]benzodiazepine] | 1.6 | 4.2 |  |  |  | 7.9 | 5.6 | 
17 | CCCc1ncn2c1Cn1ncnc1-c1cc(Br)ccc1-2 [Example 42, 3-Bromo-10-propyl-9H-imidazo[1,5-a][1,2,4]triazolo[1,5-d][1,4]benzodiazepine] | 1.4 | 10.6 |  |  |  |  |  | 
18 | Cc1ncn2c1Cn1ncnc1-c1c(F)cccc1-2 [Example 57, 4-Fluoro-10-methyl-9H-imidazo[1,5-a][1,2,4]triazolo[1,5-d][1,4]benzodiazepine] | 1 | 4.7 |  |  |  | 12.8 | 6.3 | 
19 | CCc1ncn2c1Cn1ncnc1-c1cc(F)ccc1-2 [Example 9, 10-Ethyl-3-fluoro-9H-imidazo[1,5-a][1,2,4]triazolo[1,5-d][1,4]benzodiazepine] | 0.5 | 7.9 |  |  |  | 1.9 | 1.3 | 
20 | Fc1cccc(C#Cc2ncn3c2Cn2ncnc2-c2cc(F)ccc2-3)c1 [Example 31, 3-Fluoro-10-(3-fluoro-phenylethynyl)-9H-imidazo[1,5-a][1,2,4]triazolo[1,5-d][1,4]benzodiazepine] | 1.6 | 5.5 |  |  |  | 4.5 | 3.6 | 
21 | Cc1ncn2c1Cn1ncnc1-c1ccccc1-2 [Example 1, 10-Methyl-9H-imidazo[1,5-a][1,2,4]triazolo[1,5-d][1,4]benzodiazepine] | 2.6 | 41.6 |  |  |  | 15.5 | 10.1 | 
22 | FC(F)Cc1ncn2c1Cn1ncnc1-c1ccccc1-2 [Example 41, 10-(2,2-Difluoro-ethyl)-9H-imidazo[1,5-a][1,2,4]triazolo[1,5-d][1,4]benzodiazepine] | 1 | 13.5 |  |  |  | 14.4 | 7 | 
23 | FC(F)=Cc1ncn2c1Cn1ncnc1-c1ccccc1-2 [Example 40, 10-(2,2-Difluoro-vinyl)-9H-imidazo[1,5-a][1,2,4]triazolo[1,5-d][1,4]benzodiazepine] | 0.5 | 8.5 |  |  |  | 3.7 | 2.3 | 
24 | CCc1ncn2c1Cn1ncnc1-c1cc(OC)ccc1-2 [Example 11, 10-Ethyl-3-methoxy-9H-imidazo[1,5-a][1,2,4]triazolo[1,5-d][1,4]benzodiazepine] | 3.8 | 26.7 |  |  |  | 84.6 | 39.1 | 
25 | Cc1ncn2c1Cn1ncnc1-c1cc(I)ccc1-2 [Example 53, 3-Iodo-10-methyl-9H-imidazo[1,5-a][1,2,4]triazolo[1,5-d][1,4]benzodiazepine hydrochloride (1:1)] |  |  | 4.3 | 261 | 126 |  |  | 184
26 | C/C=C/c1ncn2c1Cn1ncnc1-c1cc(Cl)ccc1-2 [Example 21, 3-Chloro-10-(E)-propenyl-9H-imidazo[1,5-a][1,2,4]triazolo[1,5-d][1,4]benzodiazepine] | 0.4 | 5.2 |  |  |  | 6.9 | 4.8 | 
